pIC50: −log10 of the molar value.
How the values were obtained:
Type in all cases: biochemical
[1] = biological target: HDAC4 (Homo sapiens, UniProt P56524); test: in vitro HDAC inhibition assay (fluorescence), HDAC4; details: HDAC4
Experimental: (§1) Briefly, all of the compounds are dissolved in DMSO. A series of dilutions of the compounds were prepared with 10% DMSO in HDAC assay buffer and 5 μl of the dilution was added to a 50 μl reaction so that the final concentration of DMSO is 1% in all of reactions. The compounds were pre-incubated in duplicate at RT for 1 hour in a mixture containing HDAC assay buffer, 5 μg BSA, HDAC enzyme (see Table 7) and a the particular HDACi. After 1 hour, the enzymatic reactions were initiated by the addition of HDAC substrate (BPS Bioscience) to a final concentration of 10 μM or 2 μM. The enzymatic reaction proceeded for 30 minutes at 37° C.
(§2) HDAC activity assays were performed in duplicates at each concentration. The fluorescent intensity data were analyzed using the computer software, Graphpad Prism. In the absence of the compound, the fluorescent intensity (Ft) in each data set was defined as 100% activity. In the absence of HDAC, the fluorescent intensity (Fb) in each data set was defined as 0% activity. The percent activity in the presence of each compound was calculated according to the following equation: % activity=(F−Fb)/(Ft−Fb), where F=the fluorescent intensity in the presence of the compound. […]

[2] = biological target: T1, HDAC7 (Homo sapiens, UniProt Q8WUI4); test: in vitro HDAC inhibition assay (fluorescence), HDAC7; details: HDAC7
T1 sequence (Q8WUI4 1-952): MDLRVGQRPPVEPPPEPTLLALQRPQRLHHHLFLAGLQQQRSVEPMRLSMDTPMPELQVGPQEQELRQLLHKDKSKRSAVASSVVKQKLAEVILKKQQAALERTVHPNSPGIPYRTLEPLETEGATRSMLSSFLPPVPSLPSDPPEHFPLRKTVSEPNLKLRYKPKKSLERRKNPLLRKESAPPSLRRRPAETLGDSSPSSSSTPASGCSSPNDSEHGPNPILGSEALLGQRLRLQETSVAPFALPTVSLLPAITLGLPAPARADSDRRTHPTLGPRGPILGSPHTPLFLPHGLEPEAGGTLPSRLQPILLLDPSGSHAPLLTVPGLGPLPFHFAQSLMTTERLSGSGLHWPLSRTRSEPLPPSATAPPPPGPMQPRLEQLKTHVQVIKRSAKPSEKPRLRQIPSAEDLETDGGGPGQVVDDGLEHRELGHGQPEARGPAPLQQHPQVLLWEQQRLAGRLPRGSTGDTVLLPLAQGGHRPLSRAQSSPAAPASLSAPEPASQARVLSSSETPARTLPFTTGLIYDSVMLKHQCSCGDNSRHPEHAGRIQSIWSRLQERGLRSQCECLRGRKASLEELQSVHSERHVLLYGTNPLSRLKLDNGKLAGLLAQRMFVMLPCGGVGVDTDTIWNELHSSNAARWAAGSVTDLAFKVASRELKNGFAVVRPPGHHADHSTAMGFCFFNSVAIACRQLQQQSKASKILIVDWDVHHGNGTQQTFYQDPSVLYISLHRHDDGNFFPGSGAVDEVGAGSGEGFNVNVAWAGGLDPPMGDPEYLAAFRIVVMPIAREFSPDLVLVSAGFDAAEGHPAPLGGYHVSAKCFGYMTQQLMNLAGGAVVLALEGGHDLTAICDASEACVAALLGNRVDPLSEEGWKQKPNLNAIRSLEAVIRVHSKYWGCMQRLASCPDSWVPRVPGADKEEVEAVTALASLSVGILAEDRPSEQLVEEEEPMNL
Experimental: as §1, §2

[3] = biological target: HDAC5 (Homo sapiens, UniProt Q9UQL6); test: in vitro HDAC inhibition assay (fluorescence), HDAC5
Chain of HDAC5 (Q9UQL6 whole entry): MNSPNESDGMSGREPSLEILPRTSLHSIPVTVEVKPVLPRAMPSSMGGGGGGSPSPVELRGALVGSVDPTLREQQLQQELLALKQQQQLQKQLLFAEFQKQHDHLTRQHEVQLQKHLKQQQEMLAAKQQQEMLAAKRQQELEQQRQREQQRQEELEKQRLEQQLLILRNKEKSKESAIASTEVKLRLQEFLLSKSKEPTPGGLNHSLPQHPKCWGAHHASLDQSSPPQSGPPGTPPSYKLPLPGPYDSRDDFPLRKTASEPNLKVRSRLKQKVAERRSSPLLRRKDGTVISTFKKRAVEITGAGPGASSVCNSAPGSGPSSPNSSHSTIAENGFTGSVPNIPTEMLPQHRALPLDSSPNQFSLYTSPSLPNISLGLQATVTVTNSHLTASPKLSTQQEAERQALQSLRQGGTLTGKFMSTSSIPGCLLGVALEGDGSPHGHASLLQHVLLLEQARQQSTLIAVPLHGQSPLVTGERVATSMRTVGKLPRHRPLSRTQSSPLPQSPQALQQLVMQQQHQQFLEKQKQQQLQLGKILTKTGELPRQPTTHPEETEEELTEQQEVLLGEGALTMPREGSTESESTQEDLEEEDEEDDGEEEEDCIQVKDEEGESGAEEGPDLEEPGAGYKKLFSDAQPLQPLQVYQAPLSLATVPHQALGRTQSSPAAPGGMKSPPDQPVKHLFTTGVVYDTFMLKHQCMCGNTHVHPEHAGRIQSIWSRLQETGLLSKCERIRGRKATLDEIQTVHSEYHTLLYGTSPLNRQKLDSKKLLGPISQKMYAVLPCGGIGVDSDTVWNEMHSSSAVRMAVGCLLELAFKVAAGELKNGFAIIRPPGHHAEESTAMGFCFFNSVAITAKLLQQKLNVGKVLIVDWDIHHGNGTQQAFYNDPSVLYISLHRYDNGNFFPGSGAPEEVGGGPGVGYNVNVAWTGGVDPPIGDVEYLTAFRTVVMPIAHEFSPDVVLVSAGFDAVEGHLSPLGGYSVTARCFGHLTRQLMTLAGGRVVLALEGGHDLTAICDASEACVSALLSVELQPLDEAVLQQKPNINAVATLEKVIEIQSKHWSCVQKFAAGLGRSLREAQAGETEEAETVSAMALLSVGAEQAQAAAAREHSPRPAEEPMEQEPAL
Experimental: as §1, §2

Chain of HDAC4 (P56524 whole entry): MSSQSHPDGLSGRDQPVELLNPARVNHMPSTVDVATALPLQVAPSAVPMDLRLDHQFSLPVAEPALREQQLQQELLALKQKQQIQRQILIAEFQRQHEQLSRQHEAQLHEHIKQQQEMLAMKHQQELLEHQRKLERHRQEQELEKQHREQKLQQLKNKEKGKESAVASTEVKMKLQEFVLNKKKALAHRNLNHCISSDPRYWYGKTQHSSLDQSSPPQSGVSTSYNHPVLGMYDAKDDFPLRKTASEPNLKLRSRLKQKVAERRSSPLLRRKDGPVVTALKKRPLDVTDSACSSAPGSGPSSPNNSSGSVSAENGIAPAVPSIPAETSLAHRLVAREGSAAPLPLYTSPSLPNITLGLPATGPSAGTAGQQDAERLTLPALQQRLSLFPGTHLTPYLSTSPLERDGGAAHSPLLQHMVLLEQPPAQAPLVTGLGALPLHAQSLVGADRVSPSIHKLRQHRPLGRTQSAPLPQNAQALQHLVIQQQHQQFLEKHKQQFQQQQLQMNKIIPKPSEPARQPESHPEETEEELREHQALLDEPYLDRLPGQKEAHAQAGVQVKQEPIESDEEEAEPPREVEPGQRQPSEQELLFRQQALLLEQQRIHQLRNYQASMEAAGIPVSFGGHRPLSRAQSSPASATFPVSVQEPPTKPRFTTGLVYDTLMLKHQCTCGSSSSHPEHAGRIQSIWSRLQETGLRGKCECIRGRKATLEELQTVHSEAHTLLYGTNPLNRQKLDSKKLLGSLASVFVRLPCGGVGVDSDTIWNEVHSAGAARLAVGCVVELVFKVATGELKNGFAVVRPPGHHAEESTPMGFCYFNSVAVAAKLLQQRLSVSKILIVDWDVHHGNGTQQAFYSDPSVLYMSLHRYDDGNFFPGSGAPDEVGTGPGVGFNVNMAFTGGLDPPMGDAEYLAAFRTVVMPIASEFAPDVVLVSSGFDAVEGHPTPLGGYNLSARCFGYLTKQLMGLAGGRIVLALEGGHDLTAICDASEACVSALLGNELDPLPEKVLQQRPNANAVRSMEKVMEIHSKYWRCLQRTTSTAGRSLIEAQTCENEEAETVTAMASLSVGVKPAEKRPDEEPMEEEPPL

O=C(NO)c1cnc(N2CC3C(C2)C3NCc2ccc3cc(F)ccc3n2)nc1 (stereo not drawn) [Nstat, 2-(6-{[(6-Fluoroquinolin-2-yl)methyl]amino}-3-azabicyclo[3.1.0]hex-3-yl)-N-hydroxypyrimidine-5-carboxamide]
pIC50 [1]: 6.00 | pIC50 [2]: 5.80 | pIC50 [3]: 6.41

From patent US20240058347A1, “DOSAGES FOR HDAC TREATMENT WITH REDUCED SIDE EFFECTS” (VIRACTA THERAPEUTICS, INC., priority 2019, published 2024)
